According to US7879887B2, “α-amino acid derivatives and medicaments containing the same as an active ingredient” (Nissan Chemical Industries, Ltd., priority 2006, dated 2011):

Legend:
CDK3/Cyclin E complex = target: T1, CDK3/Cyclin E complex (Homo sapiens, UniProt Q00526); test: In vitro kinase assay, CDK3/Cyclin E complex; format: biochemical; conditions: recombinant protein (Upstate); read-out: CDK3/cyclinE IC50
T1 construct: purchased Upstate Inc. 14-487
Procedure: Inhibitory activity against Aurora A, CDK1/Cyclin B complex, CDK2/Cyclin E complex and CDK3/Cyclin E complex were measured by in vitro kinase assay using recombinant proteins.

recombinant human βARK1 = target: T2, recombinant human βARK1 (Homo sapiens, UniProt P25098); test: Inhibitory activity against βARK1 (33P phosphorylation of synthetic peptide); format: biochemical; conditions: recombinant human βARK1, 60 minutes at room temperature
T2 construct: made in house; host or cells: Sf-9 insect cells (baculovirus, pBacPAK8)
T2 sequence (P25098 1-689): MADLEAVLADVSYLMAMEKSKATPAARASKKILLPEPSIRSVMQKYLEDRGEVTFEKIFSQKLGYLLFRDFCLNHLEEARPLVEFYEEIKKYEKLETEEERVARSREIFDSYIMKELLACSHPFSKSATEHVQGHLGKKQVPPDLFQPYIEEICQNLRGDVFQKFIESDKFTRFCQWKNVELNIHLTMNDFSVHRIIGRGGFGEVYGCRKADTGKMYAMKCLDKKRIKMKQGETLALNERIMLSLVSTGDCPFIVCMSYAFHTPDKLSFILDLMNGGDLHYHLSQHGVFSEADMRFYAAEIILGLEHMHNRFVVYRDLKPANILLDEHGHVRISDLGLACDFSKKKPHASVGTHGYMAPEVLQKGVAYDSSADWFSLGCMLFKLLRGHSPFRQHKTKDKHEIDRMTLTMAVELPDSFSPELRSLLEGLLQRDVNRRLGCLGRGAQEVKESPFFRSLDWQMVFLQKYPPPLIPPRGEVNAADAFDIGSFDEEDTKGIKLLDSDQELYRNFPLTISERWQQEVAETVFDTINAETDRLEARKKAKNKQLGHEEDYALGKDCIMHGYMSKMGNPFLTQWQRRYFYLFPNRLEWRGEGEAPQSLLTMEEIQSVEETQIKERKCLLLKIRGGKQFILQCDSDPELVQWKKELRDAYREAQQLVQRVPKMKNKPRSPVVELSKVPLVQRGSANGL
Procedure: Human βARK1 was amplified by PCR based on the base sequence of human βARK1 mRNA registered in GenBank (Accession No. M80776) using a human leukocyte cDNA library (Gibco BRL Cat. No. 10421-022) as a template. The amplified cDNA fragment was inserted into a pBacPAK8 vector (Clontech) to construct a plasmid.
Recombinant human βARK1 was expressed using the BacPAK Baculovirus Expression System (Clontech, Cat. No. K1601-1). 1×10^6 Sf-9 cells were adhered to a 35 mm dish in 2.5 mL of TMN-FH Insect Medium containing 10 vol % FBS (Pharminogen, Cat. No. PM-21227M) and cultured overnight at 27° C. On the following day, the medium was removed and 500 ng of the above plasmid, BacPAK6 viral DNA cleaved with Bsu36I (5 μL) and 1.5 mL of the same medium mixed with 4 μL of Bacfectin were added followed by culturing for 5 hours, further adding 1.5 mL of medium and subsequently culturing for 5 days. […] The culture supernatant after 5 days was recovered and a plaque assay was carried out to isolate single plaques. These were then infected into Sf-9 cells and the resulting culture supernatant was designated as Passage 1 (1−3×10^11 pfu/mL). Passage 1 was added to 3×10^7 Sf-9 cells to a multiplicity of infection (MOI) of 0.1 (pfu/cell), suspension culturing was carried out for 5 days using a spinner flask, and the resulting culture supernatant was designated as Passage 2 (4×10^10 pfu/mL) and used as a viral liquid for large-volume expression.
Sf-9 cells at 3×10^9 cells/200 mL were infected by adding Passage 2 to an MOI of 100 followed by addition of medium to bring to a liquid volume of 2 L and further culturing for 3 days. After recovering the cells by centrifugation and washing three times with PBS, the cells were suspended in 100 mL of Lysis Buffer (20 mmol/L HEPES-HCl (pH 7.2), 5 mmol/L EDTA, 3 mmol/L phenylmethylsulfonyl fluoride (PMSF)). After lysing the cells by ultrasonic treatment at low temperature, the supernatant was recovered by centrifuging (45,000×g, 15 minutes) (sup1). NaCl was added to the resulting supernatant to a final concentration of 250 mmol/L followed by ultracentrifugation (300,000×g, 60 minutes) and using the subsequent supernatant as a crude cell extract (sup2).
Purification was carried out with reference to the literature (Benovic, J. L., Methods Enzymol. 1991; 200: 351-362; Kim, C. M. et al., Receptor 1993; 3: 39-55; Sohlemann, P. et al., FEBS Letters 1993; 324: 59-62). The crude cell extract was accurately brought to a volume of 400 mL with Buffer C (20 mmol/L HEPES-HCl (pH 7.2), 5 mmol/L EDTA, 0.02 vol % Triton X-100) followed by loading onto a 50 mL SP-Sepharose FF (Amersham Pharmacia Biotech) column equilibrated with Buffer C. […] ETA was carried out on each fraction using anti-GRK2 antibody (Santa-Cruz Cat. No. SC-562) and the positive fractions were collected (GRK2=βARK1). This was then diluted three-fold with Buffer C and loaded on a 5 mL HiTrap Heparin column (Amersham Pharmacia Biotech) column equilibrated with Buffer C. After washing the column with Wash Buffer (100 mmol/L NaCl, Buffer C), the column was eluted with an NaCl concentration gradient (100 to 600 mmol/L NaCl for 100 minutes, flow rate: 1 mL/min). The positive fractions as determined by ETA were collected and stored in a freezer at −80° C.
A synthetic peptide having an amino acid sequence of biotinated-[…] was used in accordance with a previous report (Chen, C. Y. et al., J. Biol. Chem. 1993; 268: 7825-7831). This synthetic peptide can also be synthesized with reference to known synthesis methods (for example, Chen, C. Y. et al., J. Biol. Chem. 1993; 268: 7825-7831, Biochemistry 1991; 30: 5118-5125). 2 μl of a DMSO solution in which the test compound was diluted to as to be […] the final concentration was dispensed into a 96-well plate (round bottom) (Falcon 351190) (final concentration: 4 vol % DMSO). […]

T1 sequence (Q00526 whole entry): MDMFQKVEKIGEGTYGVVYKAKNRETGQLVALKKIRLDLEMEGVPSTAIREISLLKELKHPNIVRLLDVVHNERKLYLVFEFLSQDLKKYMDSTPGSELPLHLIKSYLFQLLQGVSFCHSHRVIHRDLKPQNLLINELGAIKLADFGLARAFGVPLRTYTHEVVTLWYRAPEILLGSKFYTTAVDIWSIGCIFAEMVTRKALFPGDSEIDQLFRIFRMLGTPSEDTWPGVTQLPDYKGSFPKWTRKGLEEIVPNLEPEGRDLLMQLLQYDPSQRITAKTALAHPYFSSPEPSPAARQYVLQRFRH
T1 sequence (P24864 whole entry partner): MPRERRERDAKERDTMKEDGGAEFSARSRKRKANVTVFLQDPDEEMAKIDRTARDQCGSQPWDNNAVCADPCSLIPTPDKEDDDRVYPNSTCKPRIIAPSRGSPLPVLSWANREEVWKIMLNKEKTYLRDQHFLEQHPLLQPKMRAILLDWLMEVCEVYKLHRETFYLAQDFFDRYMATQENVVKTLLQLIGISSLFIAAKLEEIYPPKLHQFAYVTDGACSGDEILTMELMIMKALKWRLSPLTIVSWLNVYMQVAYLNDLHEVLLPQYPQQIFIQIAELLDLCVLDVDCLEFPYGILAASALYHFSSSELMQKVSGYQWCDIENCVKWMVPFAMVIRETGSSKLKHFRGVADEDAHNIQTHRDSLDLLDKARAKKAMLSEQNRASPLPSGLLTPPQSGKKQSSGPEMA

| Structure (SMILES) | IC50 (CDK3/Cyclin E complex) | IC50 (recombinant human βARK1) |
| --- | --- | --- |
| O=C(CNc1ccc(Cl)c(O)c1)Nc1nc2ccc3[nH]ncc3c2s1 [compound 6] | 28 nM | 4 nM |
| CC(=O)Nc1cc(NCC(=O)Nc2nc3ccc4[nH]ncc4c3s2)ccc1Cl [compound 16] | 50 nM | 8.3 nM |
| CC(C)(Nc1cccc(O)c1)C(=O)Nc1nc2ccc3[nH]ncc3c2s1 [compound 33] | 33 nM | 7.8 nM |
| CC(C)(Nc1ccc(Cl)cc1)C(=O)Nc1nc2ccc3[nH]ncc3c2s1 [compound 35] | 80 nM | 8.8 nM |
| CC(=O)Nc1cc(NC(C)(C)C(=O)Nc2nc3c(C(F)(F)F)cc4[nH]ncc4c3s2)ccc1Cl [compound 53] | 45 nM | 2 nM |
| CNC(=O)c1cc(NC(C)(C)C(=O)Nc2nc3c(C(F)(F)F)cc4[nH]ncc4c3s2)ccc1Cl [compound 55] | 23 nM | 6.3 nM |
| CCNC(=O)c1cc(NC(C)(C)C(=O)Nc2nc3c(C(F)(F)F)cc4[nH]ncc4c3s2)ccc1F [compound 58] | 47 nM | 6.4 nM |
| CCNC(=O)c1cc(NC(C)(C)C(=O)Nc2nc3c(C(F)(F)F)cc4[nH]ncc4c3s2)ccc1Cl [compound 60] | 16 nM | 4.5 nM |
| CC(C)(Nc1ccc(Cl)c(C(=O)NC2CC2)c1)C(=O)Nc1nc2c(C(F)(F)F)cc3[nH]ncc3c2s1 [compound 75] | 41 nM | 8.8 nM |
| CC(=O)Nc1cc(NC(C)(C)C(=O)Nc2nc3c(C(F)(F)F)cc4[nH]ncc4c3s2)ccc1F [compound 81] | 55 nM | 8.3 nM |
| CC(C)(Nc1cccc(S(N)(=O)=O)c1)C(=O)Nc1nc2c(C(F)(F)F)cc3[nH]ncc3c2s1 [compound 82] | 5.9 nM | 9.3 nM |
| CC(C)(Nc1ccc(Cl)c(C(=O)NCC(N)=O)c1)C(=O)Nc1nc2c(C(F)(F)F)cc3[nH]ncc3c2s1 [compound 85] | 0.6 nM | 9.9 nM |
| CC(C)(Nc1ccc(Cl)c(O)c1)C(=O)Nc1nc2c(C(F)(F)F)cc3[nH]ncc3c2s1 [compound 95] | 22 nM | 8.7 nM |
| O=C(Nc1nc2ccc3[nH]ncc3c2s1)C1(Nc2ccc(Cl)cc2)CC1 [compound 117] | 44 nM | 3.9 nM |
| CCOC(=O)c1cc(NC2(C(=O)Nc3nc4ccc5[nH]ncc5c4s3)CC2)ccc1Cl [compound 118] | 169 nM | 8.7 nM |
| CC(=O)Nc1cc(NC2(C(=O)Nc3nc4ccc5[nH]ncc5c4s3)CC2)ccc1F [compound 120] | 105 nM | 3.7 nM |
| CCC(=O)Nc1cc(NC2(C(=O)Nc3nc4ccc5[nH]ncc5c4s3)CC2)ccc1F [compound 121] | 125 nM | 4.6 nM |
| CNC(=O)c1cc(NC2(C(=O)Nc3nc4ccc5[nH]ncc5c4s3)CC2)ccc1Cl [compound 126] | 38 nM | 7.5 nM |
| CC(=O)Nc1cc(NC(C)(C)C(=O)Nc2nc3ccc4[nH]ncc4c3s2)ccc1Cl [compound 128] | 61 nM | 2.8 nM |
| CCC(=O)Nc1cc(NC(C)(C)C(=O)Nc2nc3ccc4[nH]ncc4c3s2)ccc1Cl [compound 129] | 103 nM | 3.9 nM |
| O=C(Nc1nc2ccc3[nH]ncc3c2s1)C(CO)Nc1ccc(Cl)cc1 (stereo not shown) [compound 132] | 29 nM | 7.7 nM |
| CC(C)(Nc1ccc(Cl)c(C(N)=O)c1)C(=O)Nc1nc2c(C(F)(F)F)cc3[nH]ncc3c2s1 [compound 135] | 23 nM | 3.2 nM |
| CC(C)(Nc1ccc(Cl)c(C(=O)NCCCC(=O)O)c1)C(=O)Nc1nc2c(C(F)(F)F)cc3[nH]ncc3c2s1 [compound 144] | 180 nM | 7.7 nM |
